pEC50, pKd: −log10 of the molar value.
Tests used:
[1] = target: Bromodomain adjacent to zinc finger domain protein 2B (Homo sapiens, UniProt Q9UIF8)
Description: Binding affinity to BAZ2B bromodomain (unknown origin) assessed as dissociation constant by BROMOscan technology

[2] = target: von Hippel-Lindau disease tumor suppressor/Bromodomain adjacent to zinc finger domain protein 2A (Homo sapiens, UniProt Q9UIF9+P40337); experiment: PROTAC activity at BAZ2A/VHL in human PC-3 cells assessed as degradation after 4 hrs by Western blot analysis
[3] = target: von Hippel-Lindau disease tumor suppressor/Bromodomain adjacent to zinc finger domain protein 2B (Homo sapiens, UniProt Q9UIF8+P40337); experiment: PROTAC activity at BAZ2B/VHL in human PC-3 cells assessed as degradation after 4 hrs by Western blot analysis
[4] = target: Bromodomain adjacent to zinc finger domain protein 2A (Homo sapiens, UniProt Q9UIF9)
Description: Binding affinity to BAZ2A bromodomain (unknown origin) assessed as dissociation constant by BROMOscan technology

[5] = target: von Hippel-Lindau disease tumor suppressor/Bromodomain adjacent to zinc finger domain protein 2A (Homo sapiens, UniProt P40337+Q9UIF9); experiment: PROTAC activity at BAZ2A/VHL in human PC-3 cells assessed as BAZ2A degradation after 4 hrs by Western blot analysis
[6] = Induction of BAZ2A level in human PC-3 cells measured after 4 hrs by Western blot analysis; settings: PC-3, 4 h

Row | pKd [1] | DC50 [2] | DC50 [3] | pKd [4] | pEC50 [5] | pEC50 [6] | SMILES
1 | 8.04 | – | – | – | – | – | Cn1cc(CCn2c(CO)nc(-c3cnn(C)c3)c2-c2ccc(C#N)cc2)cn1
2 | 8.00 | – | – | – | – | – | COCc1nc(-c2cnn(C)c2)c(-c2ccc(C#N)cc2)n1CCc1cnn(C)c1
3 | 7.80 | 180 nM | 250 nM | 8.32 | – | – | Cc1ncsc1-c1ccc(CNC(=O)[C@@H]2C[C@@H](O)CN2C(=O)[C@@H](NC(=O)C2(F)CC2)C(C)(C)SC[C@H]2CC[C@H](COCc3nc(-c4cnn(C)c4)c(-c4ccc(C#N)cc4)n3CCc3cnn(C)c3)CC2)cc1
4 | 7.29 | – | 19 nM | 8.33 | 7.46 | 7.46 | Cc1ncsc1-c1ccc(CNC(=O)[C@@H]2C[C@@H](O)CN2C(=O)[C@@H](NC(=O)C2(F)CC2)C(C)(C)C)c(OC[C@H]2CC[C@H](COCc3nc(-c4cnn(C)c4)c(-c4ccc(C#N)cc4)n3CCc3cnn(C)c3)CC2)c1
